Assays:
[1] = system: Lactobacillus helveticus (N 2); experiment: Inactivation by enzymes, agar well test; type: physicochemical; conditions: two indicator strains
Gram-negative bacteria = experiment: Inhibition spectrum, agar well test, summary; type: cell-based; conditions: Table V
Excerpt: The inhibition spectrum of the supernatant is thus determined.

[2] = system: strain of Lactococcus lactis which produces lacticin 481; experiment: Inhibition spectrum test on the lacticin 481 producer; type: cell-based
Excerpt: When the strain of Lactococcus lactis which produces lacticin 481 is inoculated in the presence of a […] extract, as previously described in the inhibition spectrum test, the growth of the said strain is seen to be inhibited. The strain of Lactococcus lactis which produces lacticin 481 is immune to its own bacteriocin, lacticin 481, but is not immune to the […] produced by either of the two Micrococcus varians strains according to the present invention.

Substance	influence of catalase on bactericidal activity [1]	inhibitory effect on the growth of Gram-negative bacteria (Gram-negative bacteria)	growth of the lacticin 481 producing strain [2]
variacin: bacteriocin from Micrococcus varians strains CNCM I-1586 and CNCM I-1587, amino acid sequence SEQ ID NO:1 (GSGVIPTISHECHMNSFQFVFTCCS)	not found to exert any influence	does not exert any inhibitory effect	
lacticin 481			immune

Reference: patent publication US6689750B1, “Bactericide compositions prepared and obtained from microccus varians” (priority 1995, dated 2004)
